1 molecule from US20080131384A1, “External Preparation for Skin Whitening, Whitening Agent, Whitening Method and Method of Production of External Preparation for Skin Whitening” (Shiseido Company, Ltd., priority 2004, published 2008) can be followed below.

This test relates to Mouse B16 melanoma cells. As to the kind of experiment: Visual determination of melanin amount and number of cells in cultured B16 melanoma cells. Set-up: key: Good: whiter in comparison with the reference, and determined that the amount of melanin was small; Fair: slightly whiter in comparison with the reference, and determined that the amount of melanin was slightly small; Poor: equally white in comparison with the reference, and determined that the amount of melanin was almost the same. Conditions: 3 days incubation. The test is classed as cell-based. As to the method:
Mouse B16 melanoma cells were used. These were cultured in Eagle's MEM containing 10% FBS and theophylline (0.09 mg/ml) in a CO2 incubator (95% air, 5% carbon dioxide) at 37° C. After 24 hours of culture, the sample solution was added to give a final concentration of 2×10^−3 to 2×10^−5 weight % (as dried extract concentration). After further incubation for 3 days, the amount of melanin was determined visually by the following method.
A diffuser plate was placed on the lid of a well plate, the number of cells and the amount of melanin in the cells were observed by an inverted microscope and compared with a reference sample to which no plant extracts were added. The results are shown in Table I. Further, as a positive control, a similar examination as the above was performed for arbutin, which is already known to have an action suppressing melanin production.
Judgment Criteria • Good: whiter in comparison with the reference, and determined that the amount of melanin was small. • Fair: slightly whiter in comparison with the reference, and determined that the amount of melanin was slightly small. • Poor: equally white in comparison with the reference, and determined that the amount of melanin was almost the same.

Take `OC[C@H]1O[C@@H](Oc2ccc(O)cc2)[C@H](O)[C@@H](O)[C@@H]1O` [Arbutin, arbutin]: the “Visual Evaluation of Melanin Production” value was “Fair” (sample concentration 0.001 mass %) and “Good” (sample concentration 0.002 mass %).
